# Target: GST tagged IRAK-4 (Homo sapiens (Human), UniProt Q9NWZ3)
# Assay: IRAK-4 Kinase Assay (IMAP fluorescence polarization)
# Format: biochemical
# Details: 100 μM ATP, 30 minutes at 25° C.
# Procedure, shortened: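 Activity was read by IMAP fluorescence polarization, where phosphopeptide binding to M(III) nanoparticles raises FP. The 30-minute, 25° C reaction used 100 μM ATP, 100 nM RP7030 substrate and 0.5 nM GST-IRAK-4 in pH 7.2 Tris buffer with MgCl2, DTT and Tween 20.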
# Sequence of GST tagged IRAK-4 (Q9NWZ3 whole entry): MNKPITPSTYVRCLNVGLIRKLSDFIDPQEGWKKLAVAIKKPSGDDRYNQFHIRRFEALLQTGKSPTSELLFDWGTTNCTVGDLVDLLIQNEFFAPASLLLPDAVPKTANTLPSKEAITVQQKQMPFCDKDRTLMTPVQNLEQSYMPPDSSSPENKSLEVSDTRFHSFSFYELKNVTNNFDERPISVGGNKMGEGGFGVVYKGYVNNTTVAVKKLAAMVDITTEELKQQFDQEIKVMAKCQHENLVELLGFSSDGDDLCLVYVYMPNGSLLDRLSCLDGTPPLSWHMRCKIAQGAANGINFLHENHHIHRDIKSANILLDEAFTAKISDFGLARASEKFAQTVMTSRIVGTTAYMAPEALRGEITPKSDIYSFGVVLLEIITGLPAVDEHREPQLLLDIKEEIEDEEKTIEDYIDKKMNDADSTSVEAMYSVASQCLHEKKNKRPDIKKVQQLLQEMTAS
row,SMILES,IC50
1,"Cc1ccc(-n2nc(C3CCC(C(=O)N(C)C)CC3)cc2NC(=O)c2cnn3cccnc23)cc1 (stereo not drawn) [Example 96, N-(3-(4-(dimethylcarbamoyl)cyclohexyl)-1-(p-tolyl)-1H-pyrazol-5-yl)pyrazolo[1,5-a]pyrimidine-3-carboxamide]",< 0.1 µM
2,"Cc1ccc(-n2nc(-c3ccc(S(N)(=O)=O)cc3)cc2NC(=O)c2cnn3cccnc23)cc1 [Example 99, N-(3-(4-sulfamoylphenyl)-1-(p-tolyl)-1H-pyrazol-5-yl)pyrazolo[1,5-a]pyrimidine-3-carboxamide]",< 0.1 µM
3,"CNS(=O)(=O)c1ccc(-c2cc(NC(=O)c3cnn4cccnc34)n(-c3ccc(C)cc3F)n2)cc1 [Example 100, N-(1-(2-fluoro-4-methylphenyl)-3-(4-(N-methylsulfamoyl)phenyl)-1H-pyrazol-5-yl)pyrazolo[1,5-a]pyrimidine-3-carboxamide]",< 0.1 µM
4,"CNS(=O)(=O)c1ccc(-c2cc(NC(=O)c3cnn4cccnc34)n(-c3ccc(C4CC4)cc3F)n2)cc1 [Example 101, N-(1-(4-cyclopropyl-2-fluorophenyl)-3-(4-(N-methylsulfamoyl)phenyl)-1H-pyrazol-5-yl)pyrazolo[1,5-a]pyrimidine-3-carboxamide]",< 0.1 µM
5,"Cc1ccc(-n2nc(-c3ccc(NS(C)(=O)=O)cc3)cc2NC(=O)c2cnn3cccnc23)cc1 [Example 103, N-(3-(4-(methylsulfonamido)phenyl)-1-(p-tolyl)-1H-pyrazol-5-yl)pyrazolo[1,5-a]pyrimidine-3-carboxamide]",< 0.1 µM
6,"COc1ccc(-n2nc(C3CCNCC3)cc2NC(=O)c2cnn3cc(C(N)=O)cnc23)cc1 [Example 105, N3-(1-(4-methoxyphenyl)-3-(piperidin-4-yl)-1H-pyrazol-5-yl)pyrazolo[1,5-a]pyrimidine-3,6-dicarboxamide]",< 0.1 µM
7,"Cc1ccc(-n2nc(C3CCN(C(C)C)CC3)cc2NC(=O)c2cnn3cc(Br)cnc23)cc1 [Example 108, 6-bromo-N-(3-(1-isopropylpiperidin-4-yl)-1-(p-tolyl)-1H-pyrazol-5-yl)pyrazolo[1,5-a]pyrimidine-3-carboxamide]",< 0.1 µM
8,"Cc1ccc(-n2nc(C3CCN(C4CCCOC4)CC3)cc2NC(=O)c2cnn3cc(Br)cnc23)cc1 (stereo not drawn) [Example 109, 6-bromo-N-(3-(1-(tetrahydro-2H-pyran-3-yl)piperidin-4-yl)-1-(p-tolyl)-1H-pyrazol-5-yl)pyrazolo[1,5-a]pyrimidine-3-carboxamide]",< 0.1 µM
9,"Cc1ccc(-n2nc(C3CCN(C4CCOCC4)CC3)cc2NC(=O)c2cnn3cc(Br)cnc23)cc1 [Example 110, 6-bromo-N-(3-(1-(tetrahydro-2H-pyran-4-yl)piperidin-4-yl)-1-(p-tolyl)-1H-pyrazol-5-yl)pyrazolo[1,5-a]pyrimidine-3-carboxamide]",< 0.1 µM
10,"Cc1ccc(-n2nc(C3CCN(C(=O)CCN(C)C)CC3)cc2NC(=O)c2cnn3cc(Br)cnc23)cc1 [Example 113, 6-bromo-N-(3-(1-(3-(dimethylamino)propanoyl)piperidin-4-yl)-1-(p-tolyl)-1H-pyrazol-5-yl)pyrazolo[1,5-a]pyrimidine-3-carboxamide]",< 0.1 µM
11,"CCN(CC)CCC(=O)N1CCC(c2cc(NC(=O)c3cnn4cc(Br)cnc34)n(-c3ccc(C)cc3)n2)CC1 [Example 114, 6-bromo-N-(3-(1-(3-(diethylamino)propanoyl)piperidin-4-yl)-1-(p-tolyl)-1H-pyrazol-5-yl)pyrazolo[1,5-a]pyrimidine-3-carboxamide]",< 0.1 µM
12,"Cc1ccc(-n2nc(C3CCN(CC(N)=O)CC3)cc2NC(=O)c2cnn3cc(Br)cnc23)cc1 [Example 115, N-(3-(1-(2-amino-2-oxoethyl)piperidin-4-yl)-1-(p-tolyl)-1H-pyrazol-5-yl)-6-bromopyrazolo[1,5-a]pyrimidine-3-carboxamide]",< 0.1 µM

# The remaining lines, values ahead:
row,IC50,SMILES
1,< 0.1 µM,"Cc1ccc(-n2nc(C3CCN(C(=O)C4(O)CCC4)CC3)cc2NC(=O)c2cnn3cc(Br)cnc23)cc1 [Example 116, 6-bromo-N-(3-(1-(1-hydroxycyclobutanecarbonyl)piperidin-4-yl)-1-(p-tolyl)-1H-pyrazol-5-yl)pyrazolo[1,5-a]pyrimidine-3-carboxamide]"
2,< 0.1 µM,"COC(=O)N1CCC(c2cc(NC(=O)c3cnn4cc(Br)cnc34)n(-c3ccc(C)cc3)n2)CC1 [Example 118, methyl 4-(5-(6-bromopyrazolo[1,5-a]pyrimidine-3-carboxamido)-1-(p-tolyl)-1H-pyrazol-3-yl)piperidine-1-carboxylate]"
3,< 0.1 µM,"Cc1ccc(-n2nc(C3CCN(S(C)(=O)=O)CC3)cc2NC(=O)c2cnn3cc(C(N)=O)cnc23)cc1 [Example 120, N3-(3-(1-(methylsulfonyl)piperidin-4-yl)-1-(p-tolyl)-1H-pyrazol-5-yl)pyrazolo[1,5-a]pyrimidine-3,6-dicarboxamide]"
4,< 0.1 µM,"Cc1ccc(-n2nc(-c3cccnc3)cc2NC(=O)c2cnn3cccnc23)cc1 [Example 123, N-(3-(pyridin-3-yl)-1-(p-tolyl)-1H-pyrazol-5-yl)pyrazolo[1,5-a]pyrimidine-3-carboxamide]"
5,< 0.1 µM,"Cc1ccc(-n2nc(-c3ccncc3)cc2NC(=O)c2cnn3cccnc23)cc1 [Example 125, N-(3-(pyridin-4-yl)-1-(p-tolyl)-1H-pyrazol-5-yl)pyrazolo[1,5-a]pyrimidine-3-carboxamide]"

# Same assay, conditions: 100 μM ATP, 30 minutes at 25° C.; μM
row,SMILES,IC50
1,"Cc1ccc(-n2nc(C3CCC(C(F)(F)F)CC3)cc2NC(=O)c2cnn3cccnc23)cc1 (stereo not drawn) [Example 97, N-(1-(p-tolyl)-3-(4-(trifluoromethyl)cyclohexyl)-1H-pyrazol-5-yl)pyrazolo[1,5-a]pyrimidine-3-carboxamide]",> 1 µM
2,"Cc1ccc(-n2nc(C3CCS(=O)(=O)CC3)cc2NC(=O)c2cnn3cccnc23)cc1 [Example 98, N-(3-(1,1-dioxidotetrahydro-2H-thiopyran-4-yl)-1-(p-tolyl)-1H-pyrazol-5-yl)pyrazolo[1,5-a]pyrimidine-3-carboxamide]",< 1 µM
3,"Cc1ccc(-n2nc(-c3ccc(N)cc3)cc2NC(=O)c2cnn3cccnc23)cc1 [Example 102, N-(3-(4-aminophenyl)-1-(p-tolyl)-1H-pyrazol-5-yl)pyrazolo[1,5-a]pyrimidine-3-carboxamide]",< 1 µM
4,"COc1ccc(-n2nc(C3CCNCC3)cc2NC(=O)c2cnn3cc(Br)cnc23)cc1 [Example 104, 6-bromo-N-(1-(4-methoxyphenyl)-3-(piperidin-4-yl)-1H-pyrazol-5-yl)pyrazolo[1,5-a]pyrimidine-3-carboxamide]",< 1 µM
5,"Cc1ccc(-n2nc(C3CCNCC3)cc2NC(=O)c2cnn3cc(Br)cnc23)cc1 [Example 107, 6-bromo-N-(3-(piperidin-4-yl)-1-(p-tolyl)-1H-pyrazol-5-yl)pyrazolo[1,5-a]pyrimidine-3-carboxamide]",< 1 µM
6,"Cc1ccc(-n2nc(C3CCN(C)CC3)cc2NC(=O)c2cnn3cc(Br)cnc23)cc1 [Example 111, 6-bromo-N-(3-(1-methylpiperidin-4-yl)-1-(p-tolyl)-1H-pyrazol-5-yl)pyrazolo[1,5-a]pyrimidine-3-carboxamide]",< 1 µM
7,"Cc1ccc(-n2nc(C3CCN(C(=O)CO)CC3)cc2NC(=O)c2cnn3cc(Br)cnc23)cc1 [Example 112, 6-bromo-N-(3-(1-(2-hydroxyacetyl)piperidin-4-yl)-1-(p-tolyl)-1H-pyrazol-5-yl)pyrazolo[1,5-a]pyrimidine-3-carboxamide]",< 1 µM

# Other lines, results leading:
row,IC50,SMILES
1,< 1 µM,"Cc1ccc(-n2nc(C3CCN(C(=O)C4CN(C)CCO4)CC3)cc2NC(=O)c2cnn3cc(Br)cnc23)cc1 (stereo not drawn) [Example 117, 6-bromo-N-(3-(1-(4-methylmorpholine-2-carbonyl)piperidin-4-yl)-1-(p-tolyl)-1H-pyrazol-5-yl)pyrazolo[1,5-a]pyrimidine-3-carboxamide]"
2,< 1 µM,"Cc1ccc(-n2nc(C3CCN(S(C)(=O)=O)CC3)cc2NC(=O)c2cnn3cc(C#N)cnc23)cc1 [Example 121, 6-cyano-N-(3-(1-(methylsulfonyl)piperidin-4-yl)-1-(p-tolyl)-1H-pyrazol-5-yl)pyrazolo[1,5-a]pyrimidine-3-carboxamide]"
3,< 1 µM,"COc1ccc(-c2cc(NC(=O)c3cnn4cccnc34)n(-c3ccc(C)cc3)n2)cn1 [Example 124, N-(3-(6-methoxypyridin-3-yl)-1-(p-tolyl)-1H-pyrazol-5-yl)pyrazolo[1,5-a]pyrimidine-3-carboxamide]"
4,< 1 µM,"O=C(Nc1cc(-c2ccncc2)nn1-c1ccc(F)cc1)c1cnn2cccnc12 [Example 126, N-(1-(4-fluorophenyl)-3-(pyridin-4-yl)-1H-pyrazol-5-yl)pyrazolo[1,5-a]pyrimidine-3-carboxamide]"
5,< 1 µM,"COc1ccc(-n2nc(-c3ccncc3)cc2NC(=O)c2cnn3cccnc23)cc1 [Example 127, N-(1-(4-methoxyphenyl)-3-(pyridin-4-yl)-1H-pyrazol-5-yl)pyrazolo[1,5-a]pyrimidine-3-carboxamide]"
6,< 1 µM,"Cc1ccc(-n2nc(-c3ccncc3)cc2NC(=O)c2cnn3cccnc23)cc1F [Example 128, N-(1-(3-fluoro-4-methylphenyl)-3-(pyridin-4-yl)-1H-pyrazol-5-yl)pyrazolo[1,5-a]pyrimidine-3-carboxamide]"
7,< 1 µM,"COc1cc(-c2cc(NC(=O)c3cnn4cccnc34)n(-c3ccc(C)cc3)n2)ccn1 [Example 129, N-(3-(2-methoxypyridin-4-yl)-1-(p-tolyl)-1H-pyrazol-5-yl)pyrazolo[1,5-a]pyrimidine-3-carboxamide]"
8,< 1 µM,"Cc1ccc(-n2nc(C3CC3)cc2NC(=O)c2cnn3cccnc23)cc1 [Example 130, N-(3-cyclopropyl-1-(p-tolyl)-1H-pyrazol-5-yl)pyrazolo[1,5-a]pyrimidine-3-carboxamide]"
9,< 1 µM,"COc1ccc(-c2cc(NC(=O)c3cnn4cccnc34)n(-c3ccc(C)cc3)n2)cc1 [Example 131, N-(3-(4-methoxyphenyl)-1-(p-tolyl)-1H-pyrazol-5-yl)pyrazolo[1,5-a]pyrimidine-3-carboxamide]"
